The source made the active and inactive calls. The rule behind the calls is not given here. Some results are limits rather than exact numbers.

For data set [1], the system named is 3T3-L1. Put plainly: Inhibition of lipid accumulation in mouse 3T3-L1 cells at 5 to 20 uM incubated for 6 days by Oil Red O staining based spectrometric assay. The format is functional, cell-based. The following applies: dose 5-20 µM, time 6.0 day.
For data set [2], the system named is 3T3-L1. Kind of data set: Inhibition of lipid accumulation in mouse 3T3-L1 cells at 1 to 20 uM incubated for 6 days by Oil Red O staining based spectrometric assay. The format is functional, cell-based. The settings on record: dose 1-20 µM, time 6.0 day.
Data set [3] concerns 3T3-L1. Put plainly: Inhibition of lipid accumulation in mouse 3T3-L1 cells at 1 to 20 uM incubated for 6 days by Oil Red O staining based spectrometric assay relative to control. Format: functional. The following applies: dose 1-20 µM, time 6 day.
Data set [4] relates to 3T3-L1. Put plainly: Inhibition of lipid accumulation in mouse 3T3-L1 cells at 10 to 20 uM incubated for 6 days by CARS microscopy. Format: functional, cell-based. The settings on record: dose 10-20 µM, time 6.0 day.
Data set [5] has as its system 3T3-L1. Kind of data set: Inhibition of lipid synthesis related gene expression in mouse 3T3-L1 cells assessed as reduction in PPARgamma expression at 20 uM incubated for 6 days by real-time PCR analysis. Format: functional, cell-based. The following applies: time 6.0 day. Background: Quantitative PCR measures a nucleic acid by following its amplification.
For data set [6], the system named is 3T3-L1. Kind of data set: Inhibition of lipid synthesis related gene expression in mouse 3T3-L1 cells assessed as reduction in SREBPlc expression at 20 uM incubated for 6 days by real-time PCR analysis. Format: functional, cell-based. The following applies: time 6.0 day.
For data set [7], the system named is 3T3-L1. Put plainly: Inhibition of lipid synthesis related gene expression in mouse 3T3-L1 cells assessed as reduction in MGAT1 expression at 20 uM incubated for 6 days by real-time PCR analysis. The settings on record: time 6.0 day. The format is functional, cell-based.
Data set [8] concerns 3T3-L1. Kind of data set: Inhibition of lipid synthesis related gene expression in mouse 3T3-L1 cells assessed as reduction in DGAT2 expression at 20 uM incubated for 6 days by real-time PCR analysis. Format: functional, cell-based. The following applies: time 6.0 day.
The test system of data set [9] is 3T3-L1. Put plainly: Inhibition of lipid synthesis related gene expression in mouse 3T3-L1 cells assessed as reduction in FAS expression at 20 uM incubated for 6 days by real-time PCR analysis. The settings on record: time 6.0 day. Format: functional, cell-based.
Data set [10] relates to 3T3-L1. Kind of data set: Inhibition of lipid synthesis related gene expression in mouse 3T3-L1 cells assessed as reduction in SCD1 expression at 20 uM incubated for 6 days by real-time PCR analysis. The format is functional, cell-based. The settings on record: time 6.0 day.
Data set [11] deals with 3T3-L1. Kind of data set: Increase in 125 kDa inactive precursor form of SREBPl protein in mouse 3T3-L1 cells at 20 uM incubated for 6 days by Western blot analysis. Format: functional, cell-based. The following applies: time 6.0 day. A general note: Immunoblotting shows a protein as a band on a membrane.
Data set [12] concerns 3T3-L1. Put plainly: Inhibition of LD accumulation mouse 3T3-L1 cells using deuterium labeled glucose-d7 by SRS microscopy. Format: functional, cell-based.
Data set [13] relates to 3T3-L1. Put plainly: Suppression of cholesterol levels in mouse 3T3-L1 cells. The format is functional, cell-based.
Data set [14] has as its system 3T3-L1. Put plainly: Inhibition of CE accumulation in mouse 3T3-L1 cells. The format is functional, cell-based.
The subject of data set [15] is 3T3-L1. Put plainly: Inhibition of cholesterol uptake related gene expression in mouse 3T3-L1 cells assessed as reduction in SR-B1 expression at 20 uM incubated for 6 days by real-time PCR analysis. The settings on record: time 6.0 day. Format: functional, cell-based.
The subject of data set [16] is 3T3-L1. Kind of data set: Inhibition of cholesterol uptake related gene expression in mouse 3T3-L1 cells assessed as reduction in CD36 expression at 20 uM incubated for 6 days by real-time PCR analysis. The following applies: time 6.0 day. Format: functional, cell-based.
For data set [17], the target named is T1, Sterol O-acyltransferase 1 (Mus musculus) (UniProt Q61263).
T1 sequence (whole entry): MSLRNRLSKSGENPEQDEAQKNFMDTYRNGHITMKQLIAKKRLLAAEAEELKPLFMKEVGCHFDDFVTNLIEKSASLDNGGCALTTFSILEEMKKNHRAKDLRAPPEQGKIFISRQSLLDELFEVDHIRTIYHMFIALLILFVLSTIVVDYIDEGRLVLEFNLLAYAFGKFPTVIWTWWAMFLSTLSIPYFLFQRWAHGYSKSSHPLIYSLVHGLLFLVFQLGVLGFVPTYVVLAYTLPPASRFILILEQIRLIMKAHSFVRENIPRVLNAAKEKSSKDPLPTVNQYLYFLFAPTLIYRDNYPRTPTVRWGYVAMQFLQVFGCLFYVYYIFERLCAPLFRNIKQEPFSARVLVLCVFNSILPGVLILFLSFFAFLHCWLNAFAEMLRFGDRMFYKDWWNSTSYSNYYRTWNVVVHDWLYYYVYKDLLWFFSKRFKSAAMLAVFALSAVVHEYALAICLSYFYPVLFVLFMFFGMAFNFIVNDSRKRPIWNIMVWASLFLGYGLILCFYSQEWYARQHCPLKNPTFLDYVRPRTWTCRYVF
Kind of data set: Inhibition of ACAT in mouse 3T3-L1 cells assessed as reduction in accumulation of fluorescence-labeled CE by 25-NBD cholesterol based assay. Format: cell-based.

The subject of data set [18] is Mus musculus. Put plainly: Anti-diabetic activity in high fat diet-fed C57BL/6J mouse model of obesity and diabetes assessed as reduction in total body weight gain at 20 mg/kg, ip dosed daily for 2 weeks. Further details: scale not given: the % may be the effect or the level left. Format: functional.
Data set [19] concerns Mus musculus. Kind of data set: Anti-diabetic activity in high fat diet-fed C57BL/6J mouse model of obesity and diabetes assessed as reduction of whole body fat mass at 20 mg/kg, ip dosed daily for 2 weeks. Format: functional, organism-based.
Data set [20] has as its system Mus musculus. Kind of data set: Anti-diabetic activity in high fat diet-fed C57BL/6J mouse model of obesity and diabetes assessed as reduction of white adipose tissue at 20 mg/kg, ip dosed daily for 2 weeks. Format: functional, organism-based.
Data set [21] has as its system Mus musculus. Kind of data set: Anti-diabetic activity in high fat diet-fed C57BL/6J mouse model of obesity and diabetes assessed as reduction of white adipose tissue weight (epididymal adipose tissue ) at 20 mg/kg, ip dosed daily for 2 weeks. Format: functional, organism-based.
In data set [22] the test system is Mus musculus. Put plainly: Anti-diabetic activity in high fat diet-fed C57BL/6J mouse model of obesity and diabetes assessed as reduction of white adipose tissue weight (retroperitoneal adipose tissue ) at 20 mg/kg, ip dosed daily for 2 weeks. Format: functional, organism-based.
A short description of data set [23]: Hepato-toxicity in high fat diet-fed C57BL/6J mouse model of obesity and diabetes assessed as effect on ALT activity at 20 mg/kg, ip dosed daily for 2 weeks. Format: organism-based. The following applies: in vivo, 336 h.
For data set [24], the system named is Mus musculus. Kind of data set: Anti-diabetic activity in high fat diet-fed C57BL/6J mouse model of obesity and diabetes assessed as reduction in food intake at 20 mg/kg, ip dosed daily for 2 weeks. Format: functional. On the set-up: scale not given: the % may be the effect or the level left.
The test system of data set [25] is Mus musculus. Put plainly: Anti-diabetic activity in high fat diet-fed C57BL/6J mouse model of obesity and diabetes assessed as reduction in energy expenditure at 20 mg/kg, ip dosed daily for 2 weeks. Format: functional, organism-based.
The subject of data set [26] is Mus musculus. Put plainly: Anti-diabetic activity in high fat diet-fed C57BL/6J mouse model of obesity and diabetes assessed as reduction in respiratory exchange ratio at 20 mg/kg, ip dosed daily for 2 weeks. Format: functional, organism-based.
In data set [27] the test system is Mus musculus. Put plainly: Anti-diabetic activity in high fat diet-fed C57BL/6J mouse model of obesity and diabetes assessed as reduction in blood glucose at 20 mg/kg, ip dosed daily for 2 weeks. Format: functional, organism-based.
The test system of data set [28] is Mus musculus. Put plainly: Anti-diabetic activity in high fat diet-fed C57BL/6J mouse model of obesity and diabetes assessed as reduction in insulin levels at 20 mg/kg, ip dosed daily for 2 weeks. The format is functional, organism-based.
The subject of data set [29] is Mus musculus. Kind of data set: Anti-diabetic activity in high fat diet-fed C57BL/6J mouse model of obesity and diabetes assessed as improvement in glucose tolerance at 20 mg/kg, ip dosed daily for 2 weeks. Format: functional, organism-based.
In data set [30] the test system is Mus musculus. Put plainly: Anti-diabetic activity in high fat diet-fed C57BL/6J mouse model of obesity and diabetes assessed as improvement in HOMA-IR levels at 20 mg/kg, ip dosed daily for 2 weeks. The format is functional, organism-based.
The test system of data set [31] is Mus musculus. Put plainly: Anti-diabetic activity in high fat diet-fed C57BL/6J mouse model of obesity and diabetes assessed as improvement in blood lipid profile by measuring decrease in free cholesterol at 20 mg/kg, ip dosed daily for 2 weeks. Format: functional, organism-based.
The subject of data set [32] is Mus musculus. Kind of data set: Anti-diabetic activity in high fat diet-fed C57BL/6J mouse model of obesity and diabetes assessed as improvement in blood lipid profile by measuring decrease in CE level at 20 mg/kg, ip dosed daily for 2 weeks. The format is functional, organism-based.
The subject of data set [33] is Mus musculus. Kind of data set: Anti-diabetic activity in high fat diet-fed C57BL/6J mouse model of obesity and diabetes assessed as improvement in blood lipid profile by measuring decrease in TG level at 20 mg/kg, ip dosed daily for 2 weeks. The format is functional, organism-based.
Data set [34] relates to Mus musculus. Put plainly: Anti-diabetic activity in high fat diet-fed C57BL/6J mouse model of obesity and diabetes assessed as reduction in serum leptin level at 20 mg/kg, ip dosed daily for 2 weeks. The format is functional, organism-based.
Data set [35] has as its system Mus musculus. Kind of data set: Anti-diabetic activity in high fat diet-fed C57BL/6J mouse model of obesity and diabetes assessed as reduction in body weight at 20 mg/kg, ip dosed daily for 8 days. Format: functional, organism-based. The following applies: time 8.0 day.
Data set [36] deals with Mus musculus. Put plainly: Anti-diabetic activity in high fat diet-fed C57BL/6J mouse model of obesity and diabetes assessed as reduction in food intake at 20 mg/kg, ip dosed daily for 8 days. The format is functional, organism-based. The following applies: time 8.0 day.
Data set [37] has as its system Mus musculus. Put plainly: Effect on fecal energy content in high fat diet-fed C57BL/6J mouse model of obesity and diabetes at 20 mg/kg, ip dosed daily for 8 days. The format is functional, organism-based. The following applies: time 8.0 day.
For data set [38], the system named is 3T3-L1. Kind of data set: Effect on cytochrome B5 reductase 3 in mouse 3T3-L1 cells at 10 uM dosed during day 2 to 6 and followed by drug replacement every 48 hrs by LC-MS/MS analysis based proteomic analysis. The format is functional. The following applies: time 4.0 day.
Data set [39] concerns 3T3-L1. Put plainly: Effect on superoxide dismutase 1 in mouse 3T3-L1 cells at 10 uM dosed during day 2 to 6 and followed by drug replacement every 48 hrs by LC-MS/MS analysis based proteomic analysis. Format: functional. The settings on record: time 4.0 day.

For `CCCCCCCCCCC(C)(C)C(=O)Nc1c(OC)cc(OC)cc1OC`, the inhibition entry in the data set on 3T3-L1 [1] is “Active”.
For `CC(C)c1cc(C(C)C)c(CC(=O)NS(=O)(=O)Oc2c(C(C)C)cccc2C(C)C)c(C(C)C)c1` [AVASIMIBE], in the data set with 3T3-L1 [2], the inhibition result is “Dose-dependent effect”. Also, the “inhibition (INH)” value with 3T3-L1 [3] is reported as “<=60%”. Further, the inhibition entry in the data set on 3T3-L1 [4], in the data set with 3T3-L1 [5], in the data set with 3T3-L1 [6], in the data set with 3T3-L1 [7], with 3T3-L1 [8] and in the data set with 3T3-L1 [9] was “Active” each time. The inhibition result in the data set with 3T3-L1 [10], in the data set on 3T3-L1 [12], in the data set with 3T3-L1 [13], in the data set with 3T3-L1 [14], in the data set on 3T3-L1 [15] and with 3T3-L1 [16] was “Active” throughout. Moreover, the inhibition entry in data set [17] is “Active”. The outcome in the data set with 3T3-L1 [11], in the data set on Mus musculus [19], with Mus musculus [20], in the data set on Mus musculus [21], with Mus musculus [22] and with Mus musculus [25] was Active. The outcome in the data set with Mus musculus [26], in the data set with Mus musculus [27], with Mus musculus [28], with Mus musculus [29], in the data set on Mus musculus [30] and in the data set on Mus musculus [31] was Active. The result in the data set with Mus musculus [32], in the data set on Mus musculus [33], in the data set on Mus musculus [34], in the data set with Mus musculus [35] and in the data set on Mus musculus [36] was Active. Also, the Activity with Mus musculus [18] is given as 25%; in [23] it was “Non-Toxic”; in the data set on Mus musculus [24] it was 50%. Further, the result with Mus musculus [37], with 3T3-L1 [38] and with 3T3-L1 [39] was inactive.

(Values after ChEMBL document CHEMBL4742397, “Compositions and methods for regulating body weight and metabolic syndromes” (2018).)
